In the NIST ThermoML archive (doi:10.1021/acs.jced.9b00348):
± gives the expanded uncertainty stated by the source.

Experiment: molar heat capacity at constant pressure
Settings: 100 kPa, DSC

[F][Th]([F])([F])[F] [thorium tetraluoride]
molar heat capacity at constant pressure (1278 K, Crystal): 145 ± 21 J/K/mol
molar heat capacity at constant pressure (1478 K, Liquid): 168 ± 21 J/K/mol
